According to ChEMBL document CHEMBL1142408, “Synthesis and biological evaluation of 10,11-dihydrodictyostatin, a potent analogue of the marine anticancer agent dictyostatin” (J Nat Prod, 2008):
The source made the active and inactive calls. The calls are words filed in the database; no cut-off is given here.

Key:
Type in all cases: functional, cell-based
[1] = Cytotoxicity against taxol-resistant human NCI/ADR cells after 72 hrs by MTT assay; details: NCI/ADR-RES
[2] = test system: PANC-1; assay: Cell cycle arrest in human PANC1 cells assessed as accumulation at G2/M phase after 24 hrs
[3] = test system: DLD-1; assay: Cytotoxicity against human DLD1 cells after 72 hrs by MTT assay; details: DLD-1, 72 h
[4] = test system: ASPC1; assay: Cytotoxicity against human AsPC1 cells after 72 hrs by MTT assay; details: ASPC1, 72 h
[5] = test system: PANC-1; assay: Microtubule polymerization in human PANC1 cells
[6] = test system: PANC-1; assay: Cytotoxicity against human PANC1 cells after 72 hrs by MTT assay; details: PANC-1, 72 h
[7] = test system: P388; assay: Cytotoxicity against mouse P388 cells by MTT assay

In the case of C=C/C=C\[C@H](C)[C@@H]1OC(=O)/C=C\C=C\[C@@H](C)[C@@H](O)C[C@H](O)CC[C@H](C)[C@H](O)[C@@H](C)C[C@@H](C)CC[C@@H](O)[C@@H]1C, the IC50 [1] is reported as 300 nM, the Activity [2] is reported as “Active” and the IC50 [3] is reported as 10 nM. For the same compound, the IC50 [4] was 43 nM, the Activity [5] was “Active” and the IC50 [6] was 18 nM.
Compound C=C/C=C\[C@H](C)[C@@H]1OC(=O)/C=C\C=C\[C@@H](C)[C@@H](O)C[C@H](O)/C=C\[C@H](C)[C@H](O)[C@@H](C)C[C@@H](C)CC[C@@H](O)[C@@H]1C [DICTYOSTATIN] has an IC50 [1] of 9.8 nM, an IC50 [3] of 0.8 nM and an IC50 [4] of 9 nM. It also gave an IC50 [6] of 3.4 nM.
C=C/C=C\[C@H](C)[C@H](OC(N)=O)[C@@H](C)[C@H](O)[C@@H](C)C/C(C)=C\[C@H](C)[C@@H](O)[C@@H](C)/C=C\[C@@H](O)C[C@@H]1OC(=O)[C@H](C)[C@@H](O)[C@H]1C [DISERMOLIDE] showed an IC50 [1] of 160 nM, an IC50 [3] of 29 nM and an IC50 [7] of 35 nM. For the same compound, the IC50 [4] was 98 nM and the IC50 [6] was 59 nM.
With CC(=O)O[C@H]1C(=O)[C@@]2(C)[C@H]([C@H](OC(=O)c3ccccc3)[C@]3(O)C[C@H](OC(=O)[C@H](O)[C@@H](NC(=O)c4ccccc4)c4ccccc4)C(C)=C1C3(C)C)[C@]1(OC(C)=O)CO[C@@H]1C[C@@H]2O [PACLITAXEL] the IC50 [1] was 1000 nM, the IC50 [3] was 11 nM and the IC50 [4] was 20 nM. It also gave an IC50 [6] of 7 nM.
